In data set [1] the test system is Human immunodeficiency virus 1. Description: Antiviral activity against Human immunodeficiency virus 1 Bal infected in human PBMC assessed as incorporation of [methly-3H]dTTP to viral DNA after 7 days by reverse transcriptase activity in presence of 100% human serum. To be noted: 168 h.
In data set [2] the test system is Human immunodeficiency virus 1. The experiment in a line: Antiviral activity against Human immunodeficiency virus 1 Bal infected in human PBMC assessed as incorporation of [methly-3H]dTTP to viral DNA after 7 days by reverse transcriptase activity in presence of 100% human serum relative to control.
In data set [3] the test system is Human immunodeficiency virus 1. Description: Antiviral activity against Human immunodeficiency virus 1 3B infected in human MT4 cells assessed as viral viability after 4 to 5 days by Cell titer Glo luminescent assay. In kind it is functional, organism-based. For orientation: ATP-based viability assays read luminescence as a measure of living cells.
The subject of data set [4] is Human immunodeficiency virus 1. The experiment in a line: Antiviral activity against Human immunodeficiency virus 1 Bal infected in human PBMC assessed as incorporation of [methly-3H]dTTP to viral DNA after 7 days by reverse transcriptase activity. The data set is classed as functional, organism-based. To be noted: 168 h.
Data set [5] deals with Human immunodeficiency virus 1. Description: Antiviral activity against pseudo Human immunodeficiency virus 1 Bal infected in human CIP4 after 2 days by luciferase reporter gene assay. The data set is classed as functional, organism-based. To be noted: CIP4, 48 h. In general terms: In a reporter assay the amount or activity of a reporter protein is the signal.
Data set [6] has as its system Human immunodeficiency virus 1. The experiment in a line: Antiviral activity against Human immunodeficiency virus 1 3B infected in human MT4 cells assessed as incorporation of [methly-3H]dTTP to viral DNA after 7 days by reverse transcriptase activity in presence of […]. In kind it is functional.
Data set [7] has as its system Human immunodeficiency virus 1. Description: Antiviral activity against Human immunodeficiency virus 1 3B infected in human MT4 cells assessed as incorporation of [methly-3H]dTTP to viral DNA after 7 days by reverse transcriptase activity in presence of 20% human serum albumin relative to control. In kind it is functional.
Data set [8] deals with Human immunodeficiency virus 1. Description: Antiviral activity against pseudo Human immunodeficiency virus 1 Bal infected in human CIP4 after 2 days by luciferase reporter gene assay in presence of 40 mg/ml HAS relative to control. In kind it is functional.
Data set [9] has as its system Human immunodeficiency virus 1. Description: Antiviral activity against pseudo Human immunodeficiency virus 1 Bal infected in human CIP4 after 2 days by luciferase reporter gene assay in presence of 2 mg/ml AAG relative to control. The data set is classed as functional.
A short description of data set [10]: Cytotoxicity against human IM9 cells after 2 days by Cell titer Glo luminescent assay. In kind it is cell-based, IM-9.
Data set [11] in a line: Cytotoxicity against human U937 cells after 2 days by Cell titer Glo luminescent assay. The data set is classed as cell-based, U-937.
The nature of data set [12]: Cytotoxicity against human MT4 cells after 2 days by Cell titer Glo luminescent assay. The data set is classed as cell-based.
The nature of data set [13]: Cytotoxicity against human MOLT4 cells after 2 days by Cell titer Glo luminescent assay. The data set is classed as cell-based, MOLT-4.
Data set [14] is described as follows: Cytotoxicity against PHA-stimulated human PBMC after 2 days by Cell titer Glo luminescent assay. The data set is classed as cell-based.
Data set [15] in a line: Cytotoxicity against unstimulated human PBMC after 2 days by Cell titer Glo luminescent assay. The data set is classed as cell-based.
Data set [16] concerns Human immunodeficiency virus 1. Description: Antiviral activity against Human immunodeficiency virus 1 NL432 infected in human MT4 cells assessed as inhibition of viral DNA integration after 18 hrs by quantitative PCR. The data set is classed as functional, organism-based.
In data set [17] the test system is Human immunodeficiency virus 1. Description: Antiviral activity against Human immunodeficiency virus 1 NL432 infected in human MT4 cells assessed as increase in 2-LTR circular DNA after 18 hrs by quantitative PCR. The data set is classed as functional, organism-based.
For data set [18], the system named is Human immunodeficiency virus 1. Description: Antiviral activity against Human immunodeficiency virus 1 NL432 infected in human MT4 cells assessed as effect on viral DNA production after 18 hrs by quantitative PCR. The data set is classed as functional, organism-based.
In data set [19] the test system is Human immunodeficiency virus 1. The experiment in a line: Antiviral activity against NNRTI-resistant Human immunodeficiency virus 1 NL432 harboring non-nucleotide reverse transcriptase […] mutant infected in human HeLa-CD4 cells after 2 to 3 days by reverse transcriptase activity. In kind it is functional, organism-based. The following applies: Human immunodeficiency virus 1, NL432, CD4; pooled result: one value given for 9 cell lines, strains, targets or settings.

The subject of data set [20] is Human immunodeficiency virus 1. Description: Antiviral activity against PI-resistant Human immunodeficiency virus 1 NL432 harboring […] L24I/M46I/L63P/A71V/G73S/V82Tmutant infected in human MT4 cells after 2 to 3 days by reverse transcriptase activity. In kind it is functional, organism-based. To be noted: Human immunodeficiency virus 1, NL432, MT4.

For data set [21], the system named is Human immunodeficiency virus 1. Description: Antiviral activity against Human immunodeficiency virus 1 3B infected in human MT2 cells assessed as inhibition of virus induced cytopathic effect measured after 2 to 3 days by PCR. The data set is classed as functional, organism-based. For orientation: Damage to the host cells serves as the signal in cytopathic effect assays.

In data set [22] the test system is Human immunodeficiency virus 2. The experiment in a line: Antiviral activity against Human immunodeficiency virus 2 clinical isolate obtained from HIV infected patients. The data set is classed as functional, organism-based.
Data set [23] relates to Human immunodeficiency virus 1. The experiment in a line: Ratio of EC90 for protein-activated Human immunodeficiency virus 1 Bal infected in human PBMC to EC50 Human immunodeficiency virus 1 Bal infected in human PBMC. In kind it is functional.
In data set [24] the test system is Human immunodeficiency virus 1. Description: Antiviral activity against Human immunodeficiency virus 1 3B harboring reverse transcriptase M184V, M184I mutant infected in human MT2 cells assessed as inhibition of virus induced cytopathic effect selected on day 14 after 4 passages by PCR analysis. The data set is classed as functional, organism-based. The following applies: MT2, 336 h.

Data set [25] deals with Human immunodeficiency virus 1. Description: Antiviral activity against Human immunodeficiency virus 1 3B harboring reverse transcriptase M184V mutant infected in human MT2 cells assessed as inhibition of virus induced cytopathic effect selected on day 14 after 4 passages by PCR analysis. The data set is classed as functional, organism-based. To be noted: MT2, 336 h.
In data set [26] the test system is Human immunodeficiency virus 1. Description: Antiviral activity against Human immunodeficiency virus 1 3B harboring reverse transcriptase M184V, M184I, K82N mutant infected in human MT2 cells assessed as inhibition of virus induced cytopathic effect selected on day 14 after 4 passages by PCR analysis. To be noted: MT2, 336 h. The data set is classed as functional, organism-based.

Data set [27] concerns Human immunodeficiency virus 1. The experiment in a line: Antiviral activity against Human immunodeficiency virus 1 3B harboring integrase T124A mutant gene infected in human MT2 cells assessed as inhibition of virus induced cytopathic effect selected after 14 passages measured after 2 to 3 days by PCR. In kind it is functional, organism-based.
The test system of data set [28] is Human immunodeficiency virus 1. In kind it is functional, organism-based. To be noted: Human immunodeficiency virus 1, 3B, MT2, 672 h.
In data set [29] the test system is Human immunodeficiency virus 1. In kind it is functional, organism-based. The following applies: Human immunodeficiency virus 1, 3B, MT2.
Data set [30] has as its system Human immunodeficiency virus 1. The data set is classed as functional, organism-based. The following applies: Human immunodeficiency virus 1, 3B, MT2. The source holds these as a separate data set.
The test system of data set [31] is Human immunodeficiency virus 1. The data set is classed as functional, organism-based. The following applies: Human immunodeficiency virus 1, 3B, MT2. This is another data set of the same source.
The test system of data set [32] is Human immunodeficiency virus 1. In kind it is functional, organism-based. To be noted: Human immunodeficiency virus 1, 3B, MT2. This is another data set of the same source.

pEC50: −log10 of the molar value. Activity calls are given as the source filed them. No cut-off for these calls is given here.

The values that follow come from ChEMBL document CHEMBL1687844, “In Vitro antiretroviral properties of S/GSK1349572, a next-generation HIV integrase inhibitor” (Antimicrob Agents Chemother, 2011).

A word on the pEC50: it is the EC50 on a negative log10 scale, so that one unit is a factor of ten. The EC90 is the concentration at which the effect reaches the 90% level. The CC50 is the concentration at which the toxic effect on the cells reaches its halfway point.

Turning to `COc1cc2c(cc1Cc1cccc(Cl)c1F)c(=O)c(C(=O)O)cn2[C@H](CO)C(C)C`, in [1], the pEC50 was 7.70 and the EC90 worked out at 78 nM. Also, in data set [2], the “fold change (FC)” value is given as 22.

As to `C[C@@H]1CCO[C@H]2Cn3cc(C(=O)NCc4ccc(F)cc4F)c(=O)c([O-])c3C(=O)N12.[Na+]` [DOLUTEGRAVIR SODIUM], the negative-log EC50 (pEC50) in data set [3] was 9.15; in [4], 9.29; in data set [5] it was 8.66; in [19], 8.89; in data set [20], 9.44; in data set [21], 9.59. The negative-log EC50 (pEC50) in data set [22] was 9.10; in data set [1], 7.42. Also, the “fold change (FC)” value in data set [6] is recorded as 75; in data set [7] it was 32; in data set [8], 11; in data set [9], 2.1; in [23] it was 3; in data set [2], 75. For the same compound, the half-maximal cytotoxic concentration (CC50) at 48 h in data set [10] is 4800 nM; in data set [11], 7000 nM; in data set [12], 14000 nM; in data set [13], 15000 nM; in [14] it was 52000 nM; in [15], 189000 nM. Further, the inhibition entry in data set [16] is “Active”. The result in data set [17] was Active. Also, the result in data set [18] was inactive. Also, the EC90 in [1] is 152 nM.

As for `Nc1ccn([C@@H]2CS[C@H](CO)O2)c(=O)n1` [LAMIVUDINE], the negative logarithm of the EC50 (pEC50) in data set [21], in [24], in data set [25] and in [26] was 6.10 each time.

With `Cc1nnc(C(=O)NC(C)(C)c2nc(C(=O)NCc3ccc(F)cc3)c(O)c(=O)n2C)o1` [RALTEGRAVIR POTASSIUM], the negative logarithm of the EC50 (pEC50) in [21] is 9.59; in data set [27] it was 9.59; in data set [28] it was 9.59; in data set [29] it was 8.89; in data set [30], 8.19; in [31], 8.19. Further, the negative-log EC50 (pEC50) in [32] was 7.49; in [1], 8.25. Besides, in [1], the 90% effect concentration (EC90) is 23 nM.
